Key:
[1] = biological target: skeletal myofibrils (myosin ATPase); assay: Skeletal Myofibril ATPase Assay; assay type: biochemical; details: Table 4C
Method in brief: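 Skeletal myofibril ATPase measured by PK-LDH coupled NADH depletion, absorbance 340 nm read every 1.5-2 min over 45 min. Max−min rate normalized to 1% DMSO vehicle as 100%; IC50 from four-parameter logistic fit with bottom ≥0. Cardiac myofibrils used as counter-screen.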

[2] = biological target: T1, cardiac myofibrils (myosin ATPase); assay: Cardiac Myofibril ATPase Assay (counter screen); assay type: biochemical; details: myofibrils 1.0 mg/mL, KCl omitted, Table 5C
T1 construct: frozen myofibril pellets obtained from cardiac tissue; from tissue
T1 sequence (P12883 whole entry): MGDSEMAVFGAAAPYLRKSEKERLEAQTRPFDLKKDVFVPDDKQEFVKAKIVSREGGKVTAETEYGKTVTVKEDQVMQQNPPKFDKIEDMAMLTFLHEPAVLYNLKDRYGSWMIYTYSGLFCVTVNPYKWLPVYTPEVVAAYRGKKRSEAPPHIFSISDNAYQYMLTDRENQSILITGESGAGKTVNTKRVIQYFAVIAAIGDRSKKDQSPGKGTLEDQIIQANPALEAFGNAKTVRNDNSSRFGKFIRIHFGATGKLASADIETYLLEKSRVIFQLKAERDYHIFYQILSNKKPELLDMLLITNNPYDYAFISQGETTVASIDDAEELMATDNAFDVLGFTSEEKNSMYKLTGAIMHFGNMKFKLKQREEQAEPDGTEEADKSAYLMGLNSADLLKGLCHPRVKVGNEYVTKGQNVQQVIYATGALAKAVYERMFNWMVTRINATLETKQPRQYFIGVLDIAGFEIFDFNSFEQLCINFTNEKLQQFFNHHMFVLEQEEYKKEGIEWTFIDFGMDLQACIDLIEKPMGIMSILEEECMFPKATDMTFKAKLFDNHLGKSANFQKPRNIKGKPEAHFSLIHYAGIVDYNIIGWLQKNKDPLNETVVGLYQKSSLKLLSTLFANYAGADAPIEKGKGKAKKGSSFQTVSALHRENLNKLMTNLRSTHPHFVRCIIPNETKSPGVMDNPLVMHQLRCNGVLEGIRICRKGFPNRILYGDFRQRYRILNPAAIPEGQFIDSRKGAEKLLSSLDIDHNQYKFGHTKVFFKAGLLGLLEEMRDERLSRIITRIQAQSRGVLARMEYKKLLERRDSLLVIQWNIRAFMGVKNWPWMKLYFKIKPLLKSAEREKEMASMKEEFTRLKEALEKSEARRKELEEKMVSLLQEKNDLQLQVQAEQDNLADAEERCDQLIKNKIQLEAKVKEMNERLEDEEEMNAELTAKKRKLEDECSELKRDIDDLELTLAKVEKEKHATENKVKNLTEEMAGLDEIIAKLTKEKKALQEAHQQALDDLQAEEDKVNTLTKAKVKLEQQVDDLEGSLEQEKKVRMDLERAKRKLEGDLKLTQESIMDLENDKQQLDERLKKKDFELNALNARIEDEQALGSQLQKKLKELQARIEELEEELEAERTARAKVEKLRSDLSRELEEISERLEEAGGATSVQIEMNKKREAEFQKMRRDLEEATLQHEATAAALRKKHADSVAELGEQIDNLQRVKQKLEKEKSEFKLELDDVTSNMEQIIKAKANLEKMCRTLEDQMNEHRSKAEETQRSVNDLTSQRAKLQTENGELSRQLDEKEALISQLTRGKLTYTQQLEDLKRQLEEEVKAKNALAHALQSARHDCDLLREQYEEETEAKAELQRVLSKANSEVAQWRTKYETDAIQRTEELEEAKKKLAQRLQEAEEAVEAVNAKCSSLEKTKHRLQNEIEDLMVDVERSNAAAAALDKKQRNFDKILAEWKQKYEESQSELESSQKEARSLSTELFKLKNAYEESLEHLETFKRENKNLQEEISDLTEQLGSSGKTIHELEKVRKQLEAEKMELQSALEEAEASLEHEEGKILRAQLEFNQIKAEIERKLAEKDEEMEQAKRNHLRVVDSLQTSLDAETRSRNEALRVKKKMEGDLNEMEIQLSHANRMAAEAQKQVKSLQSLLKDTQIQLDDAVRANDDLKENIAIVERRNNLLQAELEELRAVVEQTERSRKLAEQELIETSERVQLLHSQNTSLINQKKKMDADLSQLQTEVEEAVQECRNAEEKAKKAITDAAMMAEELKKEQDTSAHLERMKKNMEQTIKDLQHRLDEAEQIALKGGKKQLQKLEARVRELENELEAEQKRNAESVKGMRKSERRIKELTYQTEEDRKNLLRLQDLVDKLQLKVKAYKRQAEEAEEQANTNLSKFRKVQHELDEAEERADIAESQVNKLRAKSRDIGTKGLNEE
T1 sequence (P08590 whole entry partner): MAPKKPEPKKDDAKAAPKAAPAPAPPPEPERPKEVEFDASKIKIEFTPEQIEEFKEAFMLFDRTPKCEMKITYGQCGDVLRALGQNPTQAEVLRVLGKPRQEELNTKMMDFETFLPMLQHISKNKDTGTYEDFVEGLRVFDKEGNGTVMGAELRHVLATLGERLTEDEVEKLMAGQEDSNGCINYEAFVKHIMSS
T1 sequence (P10916 whole entry partner): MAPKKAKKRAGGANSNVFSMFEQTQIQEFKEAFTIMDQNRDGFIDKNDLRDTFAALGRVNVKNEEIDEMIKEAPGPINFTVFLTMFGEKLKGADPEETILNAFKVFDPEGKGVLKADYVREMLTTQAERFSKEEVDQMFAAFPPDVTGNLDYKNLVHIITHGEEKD
Method in brief: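 Frozen cardiac myofibrils at 1.0 mg/mL final, KCl omitted, in a PK-LDH coupled ATPase assay; ADP production tracked as NADH loss by absorbance at 340 nm. Inhibition taken as reduced rate relative to vehicle controls, with IC50 derived.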

Structure (SMILES)	IC50 [1] [µM]	IC50 [2] [µM]
CCc1ccc(-c2ccc(=O)n(CC(=O)Nc3ccc4c(c3)OCCO4)n2)cc1 [IIIb-44, N-(2,3-dihydrobenzo[b][1,4]dioxin-6-yl)-2-(3-(4-ethylphenyl)-6-oxopyridazin-1(6H)-yl)acetamide]	> 100	> 100
COc1ccc(-c2ccc(=O)n(CC(=O)NC3CCCC3)n2)cc1OC [IIIb-45, N-cyclopentyl-2-(3-(3,4-dimethoxyphenyl)-6-oxopyridazin-1(6H)-yl)acetamide]	> 100	> 100
COc1ccc(-c2ccc(=O)n(CC(=O)NCc3ccc(F)cc3)n2)c(F)c1 [IIIb-46, 2-(3-(2-fluoro-4-methoxyphenyl)-6-oxopyridazin-1(6H)-yl)-N-(4-fluorobenzyl)acetamide]	> 100	> 100
COCCNC(=O)Cn1nc(-c2ccc(OC)cc2)ccc1=O [IIIb-47, N-(2-methoxyethyl)-2-(3-(4-methoxyphenyl)-6-oxopyridazin-1(6H)-yl)acetamide]	> 100	> 100
COc1ccc(-c2ccc(=O)n(CC(=O)NCCC(C)C)n2)cc1 [IIIb-48, N-isopentyl-2-(3-(4-methoxyphenyl)-6-oxopyridazin-1(6H)-yl)acetamide]	> 100	> 100
COc1ccc(-c2ccc(=O)n(CC(=O)NCc3ccc(OC)c(OC)c3)n2)cc1 [IIIb-49, N-(3,4-dimethoxybenzyl)-2-(3-(4-methoxyphenyl)-6-oxopyridazin-1(6H)-yl)acetamide]	> 100	> 100
COc1ccc(-c2ccc(=O)n(CC(=O)NCc3ccc(F)cc3)n2)cc1 [IIIb-50, N-(4-fluorobenzyl)-2-(3-(4-methoxyphenyl)-6-oxopyridazin-1(6H)-yl)acetamide]	> 100	> 100
COc1ccc(-c2ccc(=O)n(CC(=O)NCCc3ccc(OC)c(OC)c3)n2)cc1 [IIIb-51, N-(3,4-dimethoxyphenethyl)-2-(3-(4-methoxyphenyl)-6-oxopyridazin-1(6H)-yl)acetamide]	> 100	> 100
COc1ccc(-c2ccc(=O)n(CC(=O)Nc3cccc(Cl)c3)n2)cc1 [IIIb-52, N-(3-chlorophenyl)-2-(3-(4-methoxyphenyl)-6-oxopyridazin-1(6H)-yl)acetamide]	> 100	> 100
COc1ccc(-c2ccc(=O)n(CC(=O)NCc3ccco3)n2)cc1 [IIIb-53, N-(furan-2-ylmethyl)-2-(3-(4-methoxyphenyl)-6-oxopyridazin-1(6H)-yl)acetamide]	> 100	> 100
COc1ccc(-c2ccc(=O)n(CC(=O)NCc3ccccc3)n2)c(F)c1 [IIIb-54, N-benzyl-2-(3-(2-fluoro-4-methoxyphenyl)-6-oxopyridazin-1(6H)-yl)acetamide]	> 100	> 100
COc1ccc(-c2ccc(=O)n(CC(=O)NCc3cccc(F)c3)n2)c(F)c1 [IIIb-55, 2-(3-(2-fluoro-4-methoxyphenyl)-6-oxopyridazin-1(6H)-yl)-N-(3-fluorobenzyl)acetamide]	> 100	> 100
COc1ccc(-c2ccc(=O)n(CC(=O)Nc3ccc(C(C)C)cc3)n2)cc1 [IIIb-56, N-(4-isopropylphenyl)-2-(3-(4-methoxyphenyl)-6-oxopyridazin-1(6H)-yl)acetamide]	> 100	> 100
COc1ccc(-c2ccc(=O)n(CC(=O)NCCC(C)C)n2)c(F)c1 [IIIb-57, 2-(3-(2-fluoro-4-methoxyphenyl)-6-oxopyridazin-1(6H)-yl)-N-isopentylacetamide]	> 100	> 100
COc1ccc(-c2ccc(=O)n(CC(=O)NC3CC3)n2)c(F)c1 [IIIb-58, N-cyclopropyl-2-(3-(2-fluoro-4-methoxyphenyl)-6-oxopyridazin-1(6H)-yl)acetamide]	> 100	> 100
COc1ccc(-c2ccc(=O)n(CC(=O)Nc3cccc(C)n3)n2)cc1 [IIIb-59, 2-(3-(4-methoxyphenyl)-6-oxopyridazin-1(6H)-yl)-N-(6-methylpyridin-2-yl)acetamide]	> 100	> 100
COc1ccc(-c2ccc(=O)n(CC(=O)NC3CCCCC3)n2)c(F)c1 [IIIb-60, N-cyclohexyl-2-(3-(2-fluoro-4-methoxyphenyl)-6-oxopyridazin-1(6H)-yl)acetamide]	> 100	> 100
O=C(Cn1nc(-c2ccc(Cl)cc2)ccc1=O)Nc1ccccc1F [IIIc-27, 2-(3-(4-chlorophenyl)-6-oxopyridazin-1(6H)-yl)-N-(2-fluorophenyl)acetamide]	10 to 100	> 100

Other lines, results leading:

IC50 [1] [µM]	IC50 [2] [µM]	Structure (SMILES)
< 10	> 100	CCc1cccc(NC(=O)Cn2nc(-c3ccc(C)cc3)ccc2=O)c1 [IIIc-1, N-(3-ethylphenyl)-2-(6-oxo-3-(p-tolyl)pyridazin-1(6H)-yl)acetamide]
< 10	> 100	CC[C@H](C)NC(=O)Cn1nc(-c2ccc(C)cc2)ccc1=O [IIIc-2, (S)-N-(sec-butyl)-2-(6-oxo-3-(p-tolyl)pyridazin-1(6H)-yl)acetamide]
< 10	> 100	Cc1ccc(-c2ccc(=O)n(CC(=O)NCCc3ccccc3)n2)cc1 [IIIc-3, 2-(6-oxo-3-(p-tolyl)pyridazin-1(6H)-yl)-N-phenethylacetamide]
10 to 100	> 100	Cc1ccc(-c2ccc(=O)n(CC(=O)NC3CCCCCC3)n2)cc1 [IIIc-4, N-cycloheptyl-2-(6-oxo-3-(p-tolyl)pyridazin-1(6H)-yl)acetamide]
10 to 100	> 100	Cc1ccc(-c2ccc(=O)n(CC(=O)NC3CCCC3)n2)cc1 [IIIc-5, N-cyclopentyl-2-(6-oxo-3-(p-tolyl)pyridazin-1(6H)-yl)acetamide]
10 to 100	> 100	Cc1ccc(-c2ccc(=O)n(CC(=O)NC3CCCCC3)n2)cc1 [IIIc-6, N-cyclohexyl-2-(6-oxo-3-(p-tolyl)pyridazin-1(6H)-yl)acetamide]
10 to 100	> 100	COc1ccc(-c2ccc(=O)n(CC(=O)N(C)c3ccccc3)n2)cc1 [IIIc-7, 2-(3-(4-methoxyphenyl)-6-oxopyridazin-1(6H)-yl)-N-methyl-N-phenylacetamide]
< 10	> 100	Cn1ccc2c(NC(=O)Cn3nc(-c4ccc(F)cc4)ccc3=O)cccc21 [IIIc-16, 2-(3-(4-fluorophenyl)-6-oxopyridazin-1(6H)-yl)-N-(1-methyl-1H-indol-4-yl)acetamide]
< 10	> 100	O=C(Cn1nc(-c2ccc(Cl)cc2)ccc1=O)Nc1cccc2[nH]ccc12 [IIIc-19, 2-(3-(4-chlorophenyl)-6-oxopyridazin-1(6H)-yl)-N-(1H-indol-4-yl)acetamide]
< 10	10 to 100	Cn1ccc2c(NC(=O)Cn3nc(-c4ccc(Cl)cc4)ccc3=O)cccc21 [IIIc-20, 2-(3-(4-chlorophenyl)-6-oxopyridazin-1(6H)-yl)-N-(1-methyl-1H-indol-4-yl)acetamide]
< 10	> 100	O=C(Cn1nc(-c2ccc(Cl)cc2)ccc1=O)Nc1ccc2[nH]ccc2c1 [IIIc-22, 2-(3-(4-chlorophenyl)-6-oxopyridazin-1(6H)-yl)-N-(1H-indol-5-yl)acetamide]
< 10	> 100	COc1ccccc1NC(=O)Cn1nc(-c2ccc(Cl)cc2)ccc1=O [IIIc-23, 2-(3-(4-chlorophenyl)-6-oxopyridazin-1(6H)-yl)-N-(2-methoxyphenyl)acetamide]

Reference: patent US12415794B2 (Edgewise Therapeutics, Inc., priority 2018, dated 2025)
